Earlier results in patent US20190367449A1, “PHENYLCREATINE, ITS USE AND METHOD FOR ITS PRODUCTION” (priority 2017, published 2019).

Conditions: in vivo; cited from earlier work

CN(CC(=O)O)C(=N)N.Cl [creatine hydrochloride]
Relative bioavailability, higher than of creatine monohydrate: about 50%
